This note sets out measurements from publication PMC9313321 (Biomedicines, 2022).

In assay [1] the test system is SH-SY5Y cells. Put plainly: Neuroprotection against Aβ42-induced toxicity (MTT reduction). The class given is cell-based, human. Conditions: 1 h pre-incubation + 24 h with Aβ42 1 µM, 4d at 3 µM. The procedure: (§1) SH-SY5Y human neuroblastoma cells (ATCC-CRL-2266) were kept in culture using Dulbecco’s Modified Eagle Medium (DMEM) (Gibco-Invitrogen, Life Technologies Ltd., Waltham, MA, USA) containing 10% heat-inactivated fetal bovine serum (FBS), 50 U mL^−1 penicillin and 50 μg mL^−1 streptomycin. Incubation of the cells occurred at 37 °C in 5% CO2. The toxicity of the compounds was tested through cell viability assays, with cells seeded with a density of 0.24 × 10^6 cells mL^−1. DMSO was used to dissolve each tested compound (4a–4d, 5a, 5b), affording stock solutions with concentrations of 25 mM. Aliquots of these solutions were stored at −20 °C. Concentrations from 1 μM to 10 μM were screened in order to select the highest non-toxic concentration of each compound. Consequently, compounds 4a, 4b and 5b were tested at 1 μM final concentration; compounds 4c and 5a were tested at 2 μM final concentration; compound 4d was tested at a final concentration of 3 μM. The DMSO concentrations in the culture media were lower than 0.05% (v/v) and the viability of the SH-SY5Y cells was not altered in a detectable manner. […]
(§2) The colorimetric MTT (3-(4,5-dimethylthiazol-2-yl)-2,5-diphenyltetrazolium bromide) reduction assay was used to determine cell viability. […] The absorbance of each well was measured at 570 nm. […]
(§3) All data were expressed as means ± SEMs of at least five independent experiments performed in duplicate. […]

For assay [2], the system named is SH-SY5Y cells. Put plainly: Neuroprotection against Fe/Ascorbate toxicity (MTT reduction). As to conditions: 1 h pre-incubation + 24 h with Fe 2.5 mM/Asc 5 mM, 5a at 2 µM. The class given is cell-based, human. The method, then: as §1, §2, §3

“Also recorded” adds a separate entry of the source.

As to `CCN(C)C(=O)Oc1ccc(CCCNC(=O)c2ccc3nc(-c4ccccc4O)[nH]c3c2)cc1` [Compound 4d, 4-(3-(2-(2-Hydroxyphenyl)-1H-benzo[d]imidazole-6-carboxamido)propyl) Phenyl Ethylmethylcarbamate], the “Neuroprotective effect against Aβ42-induced toxicity (cell viability, MTT)” value in the assay with SH-SY5Y cells [1] is given as “significantly prevented Aβ-induced cell toxicity; also recorded: best neuroprotective capacities”.
On to `CCN(C)C(=O)Oc1cccc(NC(=O)c2cccc3[nH]c(-c4ccccc4O)nc23)c1` [Compound 5a, 3-(2-(2-Hydroxyphenyl)-1H-benzo[d]imidazole-4-carboxamido)phenyl Ethylmethylcarbamate], for which the “Neuroprotective effect against Fe/Ascorbate toxicity (cell viability, MTT)” value in the assay with SH-SY5Y cells [2] is “statistically significant neuroprotective effect; also recorded: best neuroprotective capacities”.
